From US9776995B2, “Bicyclic sulfonamide compounds as sodium channel inhibitors” (AMGEN INC., priority 2013, dated 2017)
Where two headings read alike, the source gives them in different places.

Experiments:
[1] = biological target: Nav 1.5 (Homo sapiens (Human), UniProt Q14524); experiment: in-vitro Nav 1.5 PX data; settings: read-out: Nav 1.5 PX IC50
[2] = biological target: Nav 1.7 (Homo sapiens (Human), UniProt Q15858); experiment: in-vitro Nav 1.7 PX data; assay type: cell-based
Sequence of Nav 1.7 (Q15858 whole entry): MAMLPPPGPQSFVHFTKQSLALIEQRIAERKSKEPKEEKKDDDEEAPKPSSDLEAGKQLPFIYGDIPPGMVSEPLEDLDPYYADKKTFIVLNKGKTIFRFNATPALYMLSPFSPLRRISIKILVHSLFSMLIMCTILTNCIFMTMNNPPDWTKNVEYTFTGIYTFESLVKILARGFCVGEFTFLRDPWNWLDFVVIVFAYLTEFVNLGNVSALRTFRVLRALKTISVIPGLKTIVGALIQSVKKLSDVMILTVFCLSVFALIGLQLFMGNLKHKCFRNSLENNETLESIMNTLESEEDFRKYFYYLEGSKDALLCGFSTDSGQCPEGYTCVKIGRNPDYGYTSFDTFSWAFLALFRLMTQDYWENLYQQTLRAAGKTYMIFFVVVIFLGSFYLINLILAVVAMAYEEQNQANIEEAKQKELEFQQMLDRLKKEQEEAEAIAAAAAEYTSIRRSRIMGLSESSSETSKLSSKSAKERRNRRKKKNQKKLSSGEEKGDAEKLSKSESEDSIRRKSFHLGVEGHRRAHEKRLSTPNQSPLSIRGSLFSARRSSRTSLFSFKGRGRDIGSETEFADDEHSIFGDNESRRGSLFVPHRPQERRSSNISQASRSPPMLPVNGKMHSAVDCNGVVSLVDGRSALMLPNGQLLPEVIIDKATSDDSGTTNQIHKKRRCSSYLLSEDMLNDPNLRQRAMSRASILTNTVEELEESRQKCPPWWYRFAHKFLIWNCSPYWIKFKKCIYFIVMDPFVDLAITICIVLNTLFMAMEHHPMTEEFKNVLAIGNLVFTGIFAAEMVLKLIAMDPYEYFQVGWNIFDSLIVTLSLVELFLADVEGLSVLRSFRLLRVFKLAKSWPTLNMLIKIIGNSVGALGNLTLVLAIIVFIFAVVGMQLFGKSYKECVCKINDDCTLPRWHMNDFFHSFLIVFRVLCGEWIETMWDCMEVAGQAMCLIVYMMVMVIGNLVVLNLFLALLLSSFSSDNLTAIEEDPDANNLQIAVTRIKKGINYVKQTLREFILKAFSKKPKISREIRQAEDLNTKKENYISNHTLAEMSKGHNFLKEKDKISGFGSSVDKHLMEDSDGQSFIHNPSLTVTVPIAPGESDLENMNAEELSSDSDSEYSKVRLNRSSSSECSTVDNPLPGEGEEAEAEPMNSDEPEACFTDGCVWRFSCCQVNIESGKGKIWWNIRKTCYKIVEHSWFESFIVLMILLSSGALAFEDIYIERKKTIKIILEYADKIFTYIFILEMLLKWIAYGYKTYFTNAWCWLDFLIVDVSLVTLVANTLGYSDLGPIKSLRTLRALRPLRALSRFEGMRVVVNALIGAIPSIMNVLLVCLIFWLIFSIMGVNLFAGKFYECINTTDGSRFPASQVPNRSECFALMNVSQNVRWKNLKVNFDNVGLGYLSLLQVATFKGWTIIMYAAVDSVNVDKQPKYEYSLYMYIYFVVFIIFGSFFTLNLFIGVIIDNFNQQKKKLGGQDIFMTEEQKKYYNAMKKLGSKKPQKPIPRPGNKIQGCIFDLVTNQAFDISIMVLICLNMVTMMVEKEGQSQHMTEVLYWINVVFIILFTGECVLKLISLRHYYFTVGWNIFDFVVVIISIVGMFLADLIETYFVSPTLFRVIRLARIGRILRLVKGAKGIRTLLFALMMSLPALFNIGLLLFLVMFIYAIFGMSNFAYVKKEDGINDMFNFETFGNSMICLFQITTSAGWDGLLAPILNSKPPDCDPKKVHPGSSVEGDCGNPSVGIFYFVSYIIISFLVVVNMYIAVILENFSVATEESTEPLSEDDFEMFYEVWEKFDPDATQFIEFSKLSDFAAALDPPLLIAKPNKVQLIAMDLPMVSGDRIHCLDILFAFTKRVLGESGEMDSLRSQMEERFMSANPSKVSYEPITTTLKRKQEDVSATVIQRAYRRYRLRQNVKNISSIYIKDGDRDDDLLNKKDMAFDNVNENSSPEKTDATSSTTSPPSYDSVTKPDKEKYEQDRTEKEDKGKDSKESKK

Sequence of Nav 1.5 (Q14524 whole entry): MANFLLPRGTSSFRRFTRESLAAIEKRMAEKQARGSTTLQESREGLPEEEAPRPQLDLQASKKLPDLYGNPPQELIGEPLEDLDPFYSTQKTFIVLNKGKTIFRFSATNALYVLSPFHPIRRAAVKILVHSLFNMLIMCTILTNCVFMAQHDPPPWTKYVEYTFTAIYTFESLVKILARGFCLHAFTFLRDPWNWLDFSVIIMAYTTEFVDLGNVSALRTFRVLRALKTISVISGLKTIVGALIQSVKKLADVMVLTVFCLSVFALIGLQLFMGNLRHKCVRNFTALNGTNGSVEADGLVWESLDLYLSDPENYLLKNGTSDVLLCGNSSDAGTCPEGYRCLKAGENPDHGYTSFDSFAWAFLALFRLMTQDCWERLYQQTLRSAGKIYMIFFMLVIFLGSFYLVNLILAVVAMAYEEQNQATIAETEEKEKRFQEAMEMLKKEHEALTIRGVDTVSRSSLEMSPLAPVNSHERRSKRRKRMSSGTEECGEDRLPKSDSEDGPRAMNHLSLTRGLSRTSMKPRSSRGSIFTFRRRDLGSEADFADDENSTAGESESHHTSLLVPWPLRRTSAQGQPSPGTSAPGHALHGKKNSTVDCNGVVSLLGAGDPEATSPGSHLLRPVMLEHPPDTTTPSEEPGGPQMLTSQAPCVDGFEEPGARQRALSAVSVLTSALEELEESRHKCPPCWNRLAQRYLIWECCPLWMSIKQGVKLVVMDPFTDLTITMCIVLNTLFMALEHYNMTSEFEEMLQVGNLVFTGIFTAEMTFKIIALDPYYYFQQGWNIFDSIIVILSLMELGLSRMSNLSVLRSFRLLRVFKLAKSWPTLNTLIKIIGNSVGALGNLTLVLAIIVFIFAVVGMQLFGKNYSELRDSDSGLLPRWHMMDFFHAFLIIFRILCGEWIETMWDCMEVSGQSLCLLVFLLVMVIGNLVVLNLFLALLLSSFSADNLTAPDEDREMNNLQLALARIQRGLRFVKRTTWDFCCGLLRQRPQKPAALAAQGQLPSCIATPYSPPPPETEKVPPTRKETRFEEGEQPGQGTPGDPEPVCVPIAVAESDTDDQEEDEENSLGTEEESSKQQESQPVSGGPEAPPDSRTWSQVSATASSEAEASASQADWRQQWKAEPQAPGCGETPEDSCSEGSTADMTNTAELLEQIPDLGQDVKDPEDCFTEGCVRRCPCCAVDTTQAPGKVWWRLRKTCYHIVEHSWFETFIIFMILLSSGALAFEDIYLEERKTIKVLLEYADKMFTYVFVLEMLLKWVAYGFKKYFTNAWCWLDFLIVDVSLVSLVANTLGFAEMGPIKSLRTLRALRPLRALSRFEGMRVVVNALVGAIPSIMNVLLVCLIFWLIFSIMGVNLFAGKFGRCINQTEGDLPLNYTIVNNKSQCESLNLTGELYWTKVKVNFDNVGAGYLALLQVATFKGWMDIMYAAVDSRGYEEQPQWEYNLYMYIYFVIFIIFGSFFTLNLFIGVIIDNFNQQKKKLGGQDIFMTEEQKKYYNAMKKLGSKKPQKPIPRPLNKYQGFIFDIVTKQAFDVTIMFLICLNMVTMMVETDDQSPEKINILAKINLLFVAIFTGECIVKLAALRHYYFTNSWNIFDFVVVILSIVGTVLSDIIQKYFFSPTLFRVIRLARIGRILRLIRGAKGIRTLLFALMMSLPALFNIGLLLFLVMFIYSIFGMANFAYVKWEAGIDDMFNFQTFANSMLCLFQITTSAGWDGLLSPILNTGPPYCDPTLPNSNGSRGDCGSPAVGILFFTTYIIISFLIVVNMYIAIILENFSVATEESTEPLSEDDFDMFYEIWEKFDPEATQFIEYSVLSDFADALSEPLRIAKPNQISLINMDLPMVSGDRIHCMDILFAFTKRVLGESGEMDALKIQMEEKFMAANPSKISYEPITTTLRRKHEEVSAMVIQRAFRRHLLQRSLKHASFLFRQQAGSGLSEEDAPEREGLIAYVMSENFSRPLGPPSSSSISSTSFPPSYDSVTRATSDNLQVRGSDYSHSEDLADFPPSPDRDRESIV

Row | SMILES | IC50 ([2]; in-vitro PX) [nM] | IC50 ([2]; PatchXpress (PX), in vitro) [nM] | IC50 ([2]; in-vitro Nav 1.7 PX data) [nM] | IC50 ([1]; in-vitro PX) [nM] | IC50 ([1]; PatchXpress (PX), in vitro) [nM] | IC50 ([1]; in-vitro Nav 1.5 PX data) [nM]
1 | COc1cc(-c2cc(C)cc(F)c2)c(C#N)cc1-c1nccc2cc(S(=O)(=O)Nc3ccon3)ccc12 [Example 77, 1-(2-cyano-3′-fluoro-5-methoxy-5′-methyl-4-biphenylyl)-N-3-isoxazolyl-6-isoquinolinesulfonamide] |  | 72.5 |  |  | > 10000 | 
2 | COc1cc(-c2ccc(F)c(F)c2)c(C#N)cc1-c1nccc2cc(S(=O)(=O)Nc3ccon3)ccc12 [Example 80, 1-(2-cyano-3′,4′-difluoro-5-methoxy-4-biphenylyl)-N-3-isoxazolyl-6-isoquinolinesulfonamide] |  | 28.2 |  |  | > 10000 | 
3 | Cc1ccc(Oc2ccccc2)cc1-c1nccc2cc(S(=O)(=O)Nc3ccncn3)ccc12 [Example 39, 1-(2-METHYL-5-PHENOXYPHENYL)-N-(PYRIMIDIN-4-YL)ISOQUINOLINE-6-SULFONAMIDE] |  |  | 488 |  |  | > 10000

More lines, main results first:

Row | IC50 ([2]; in-vitro PX) [nM] | IC50 ([2]; PatchXpress (PX), in vitro) [nM] | IC50 ([2]; in-vitro Nav 1.7 PX data) [nM] | SMILES | IC50 ([1]; in-vitro PX) [nM] | IC50 ([1]; PatchXpress (PX), in vitro) [nM] | IC50 ([1]; in-vitro Nav 1.5 PX data) [nM]
4 | 33.8 |  |  | COc1cc(-c2ccc(F)cc2)c(C#N)cc1-c1nccc2cc(S(=O)(=O)Nc3nncs3)ccc12 [Example 219, 1-(2-cyano-4′-fluoro-5-methoxy-4-biphenylyl)-N-1,3,4-thiadiazol-2-yl-6-isoquinolinesulfonamide] | > 10000 |  | 
5 | 336 |  |  | COc1nc(N2CCC(F)(F)C2)c(Cl)cc1-c1nccc2cc(S(=O)(=O)Nc3nncs3)ccc12 [Example 237, 1-(5-chloro-6-(3,3-difluoro-1-pyrrolidinyl)-2-methoxy-3-pyridinyl)-N-1,3,4-thiadiazol-2-yl-6-isoquinolinesulfonamide] | > 30000 |  | 
6 |  |  | 38.7 | COc1cc(-c2ccc(C)c(Cl)c2)c(C#N)cc1-c1nccc2cc(S(=O)(=O)Nc3ccncn3)ccc12 [Example 159, 1-(3′-chloro-2-cyano-5-methoxy-4′-methyl-4-biphenylyl)-N-4-pyrimidinyl-6-isoquinolinesulfonamide] |  |  | > 30000
